Assay results as given in US20240279220A1, “INDOLE COMPOUNDS AND METHODS OF USE” (Genzyme Corporation, priority 2021, published 2024).

Test system: NBD1/3D
Assay: Aggregation analysis using differential static light scattering (DSLS), NBD1 thermal stability
Format: binding, Human
Details: ΔTagg versus DMSO control; compound at 100 μM
Experimental: Purified recombinant NBD1 was produced using previously described methods (A. Schmidt, J. L. Mendoza, P. J. Thomas (2011) Biochemical and Biophysical Approaches to Probe CFTR Structure (365-376) M. D. Amaral, K. Kunzelmann (eds.), Cystic Fibrosis, Methods in Molecular Biology 741, Springer Science+Business Media). The effect of test compounds on thermal stability of NBD1 was evaluated by differential static light scattering (DSLS) using the Harbinger Stargazer-384 instrument (Epiphyte Three, Toronto, Canada).
Test compounds were dissolved and diluted to desired concentrations in 100% DMSO. The compounds or DMSO controls (100 nL) were stamped into wells of a […] low volume optical plate (Corning Inc., Corning, NY) using the Echo 555 acoustic liquid handler (Labcyte Inc., San Jose, CA).
NBD1 protein was diluted to 0.2 mg/ml in S200 buffer (50 mM Tris-HCl, 150 mM NaCl, 5 mM MgCl2, 2 mM ATP, 2 mM DTT, pH7.6) containing 1% glycerol. 10 uL of protein solution was aliquoted into the 384-well plate harboring the test compounds and 10 uL mineral oil was overlayed onto the protein solution, using the epMotion robotic liquid handler (Eppendorf North America, Hauppauge, NY). After placing into the Stargazer instrument, the plate was heated at 1° C. per minute to 70° C. Images were captured from 25° C. to 70° C. every 0.5° C. At the end of the experiment run, instrument software integrated image files and analyzed data automatically. A […] regression curve was generated for each well, representing the increase in light scattering over time. A temperature of aggregation (Tagg) was calculated based on the inflection point of the curve. To better compare data across experiments the average Tagg for DMSO control wells was calculated and subtracted from values for wells containing compounds to obtain a “ΔTagg” value. These ΔTagg values reflect stabilizing efficacy of the compounds.

Row | SMILES | DSLS NBD1/3D Human Stability delta-T (° C.) @ 100 (μM)
1 | CC(c1cnc(-c2cc(Oc3c(F)cc4[nH]ccc4c3CN3CCCS3(=O)=O)ccc2F)[nH]1)c1cccc(CCC(=O)O)c1F (single isomer, unassigned) [Example 134A, 3-(3-(1-(2-(5-((4-((1,1-dioxidoisothiazolidin-2-yl)methyl)-6-fluoro-1H-indol-5-yl)oxy)-2-fluorophenyl)-1H-imidazol-5-yl)ethyl)-2-fluorophenyl)propanoic acid] | B (B: 5-10° C.)
2 | CC(c1cnc(-c2cc(Oc3c(F)cc4[nH]ccc4c3CCP(C)(C)=O)ccc2F)[nH]1)c1cccc(CCC(=O)O)c1F (single isomer, unassigned) [Example 135B, 3-(3-(1-(2-(5-((4-(2-(dimethylphosphoryl)ethyl)-6-fluoro-1H-indol-5-yl)oxy)-2-fluorophenyl)-1H-imidazol-5-yl)ethyl)-2-fluorophenyl)propanoic acid] | C (C: ≤5° C.)
3 | CC(c1c[nH]c(-c2cc(Oc3c(F)cc4[nH]ccc4c3S(C)(=N)=O)ccc2F)n1)c1cccc(CCC(=O)O)c1F (single isomer, unassigned) [Example 136A, 3-(2-fluoro-3-(1-(2-(2-fluoro-5-((6-fluoro-4-(S-methylsulfonimidoyl)-1H-indol-5-yl)oxy)phenyl)-1H-imidazol-4-yl)ethyl)phenyl)propanoic acid] | B (B: 5-10° C.)
4 | CC(c1c[nH]c(-c2cc(Oc3c(F)cc4[nH]ccc4c3S(C)(=N)=O)ccc2F)n1)c1cccc(CCC(=O)O)c1F (single isomer, unassigned) [Example 136B, 3-(2-fluoro-3-(1-(2-(2-fluoro-5-((6-fluoro-4-(S-methylsulfonimidoyl)-1H-indol-5-yl)oxy)phenyl)-1H-imidazol-4-yl)ethyl)phenyl)propanoic acid] | A (A: T ≥ 10° C.)
5 | CC(c1c[nH]c(-c2cc(Oc3c(F)cc4[nH]ccc4c3S(C)(=N)=O)ccc2F)n1)c1cccc(CCC(=O)O)c1F (single isomer, unassigned) [Example 136D, 3-(2-fluoro-3-(1-(2-(2-fluoro-5-((6-fluoro-4-(S-methylsulfonimidoyl)-1H-indol-5-yl)oxy)phenyl)-1H-imidazol-4-yl)ethyl)phenyl)propanoic acid] | B (B: 5-10° C.)
6 | CC(Cc1cccc(C(C)c2cnc(-c3cc(Oc4c(F)cc5[nH]ccc5c4F)ccc3F)[nH]2)c1F)C(=O)O (single isomer, unassigned) [Example 137A, 3-(3-(1-(2-(5-((4,6-difluoro-1H-indol-5-yl)oxy)-2-fluorophenyl)-1H-imidazol-5-yl)ethyl)-2-fluorophenyl)-2-methylpropanoic acid] | B (B: 5-10° C.)
7 | CC(Cc1cccc(C(C)c2cnc(-c3cc(Oc4c(F)cc5[nH]ccc5c4F)ccc3F)[nH]2)c1F)C(=O)O (single isomer, unassigned) [Example 137B, 3-(3-(1-(2-(5-((4,6-difluoro-1H-indol-5-yl)oxy)-2-fluorophenyl)-1H-imidazol-5-yl)ethyl)-2-fluorophenyl)-2-methylpropanoic acid] | B (B: 5-10° C.)
8 | CC(Cc1cccc(C(C)c2cnc(-c3cc(Oc4c(F)cc5[nH]ccc5c4F)ccc3F)[nH]2)c1F)C(=O)O (single isomer, unassigned) [Example 137C, 3-(3-(1-(2-(5-((4,6-difluoro-1H-indol-5-yl)oxy)-2-fluorophenyl)-1H-imidazol-5-yl)ethyl)-2-fluorophenyl)-2-methylpropanoic acid] | C (C: ≤5° C.)
9 | Cc1c(Oc2ccc(F)c(-c3ncc(C(C)c4cccc([C@@H]5C[C@@H]5C(=O)O)c4F)[nH]3)c2)c(F)cc2[nH]ccc12 (single isomer, unassigned) [Example 138A, cis-2-(2-fluoro-3-(1-(2-(2-fluoro-5-((6-fluoro-4-methyl-1H-indol-5-yl)oxy)phenyl)-1H-imidazol-5-yl)ethyl)phenyl)cyclopropane-1-carboxylic acid] | C (C: ≤5° C.)
10 | Cc1c(Oc2ccc(F)c(-c3ncc(C(C)c4cccc([C@@H]5CC5C(=O)O)c4F)[nH]3)c2)c(F)cc2[nH]ccc12 (single isomer, unassigned) [Example 138B, cis-2-(2-fluoro-3-(1-(2-(2-fluoro-5-((6-fluoro-4-methyl-1H-indol-5-yl)oxy)phenyl)-1H-imidazol-5-yl)ethyl)phenyl)cyclopropane-1-carboxylic acid] | C (C: ≤5° C.)
11 | Cc1c(Oc2ccc(F)c(-c3ncc(C(C)c4cccc([C@@H]5C[C@@H]5C(=O)O)c4F)[nH]3)c2)c(F)cc2[nH]ccc12 (single isomer, unassigned) [Example 138C, cis-2-(2-fluoro-3-(1-(2-(2-fluoro-5-((6-fluoro-4-methyl-1H-indol-5-yl)oxy)phenyl)-1H-imidazol-5-yl)ethyl)phenyl)cyclopropane-1-carboxylic acid] | C (C: ≤5° C.)
12 | Cc1c(Oc2ccc(F)c(-c3ncc(C(C)c4cccc([C@H]5C[C@H]5C(=O)O)c4F)[nH]3)c2)c(F)cc2[nH]ccc12 (single isomer, unassigned) [Example 138D, cis-2-(2-fluoro-3-(1-(2-(2-fluoro-5-((6-fluoro-4-methyl-1H-indol-5-yl)oxy)phenyl)-1H-imidazol-5-yl)ethyl)phenyl)cyclopropane-1-carboxylic acid] | C (C: ≤5° C.)
13 | Cc1c(Oc2ccc(F)c(-c3ncc(C(C)c4cccc([C@H]5C[C@@H]5C(=O)O)c4F)[nH]3)c2)c(F)cc2[nH]ccc12 (single isomer, unassigned) [Example 139G, trans-2-(2-fluoro-3-(1-(2-(2-fluoro-5-((6-fluoro-4-methyl-1H-indol-5-yl)oxy)phenyl)-1H-imidazol-5-yl)ethyl)phenyl)cyclopropane-1-carboxylic acid] | C (C: ≤5° C.)
14 | Cc1c(Oc2ccc(F)c(-c3ncc(C(C)c4cccc([C@H]5CC5C(=O)O)c4F)[nH]3)c2)c(F)cc2[nH]ccc12 (single isomer, unassigned) [Example 139H, trans-2-(2-fluoro-3-(1-(2-(2-fluoro-5-((6-fluoro-4-methyl-1H-indol-5-yl)oxy)phenyl)-1H-imidazol-5-yl)ethyl)phenyl)cyclopropane-1-carboxylic acid] | C (C: ≤5° C.)
15 | Cc1c(Oc2ccc(F)c(-c3ncc(C4(c5cccc(CCC(=O)O)c5)CCOC(C)C4)[nH]3)c2)c(F)cc2[nH]ccc12 (single isomer, unassigned) [Example 151, 3-(3-(4-(2-(2-fluoro-5-((6-fluoro-4-methyl-1H-indol-5-yl)oxy)phenyl)-1H-imidazol-5-yl)-2-methyltetrahydro-2H-pyran-4-yl)phenyl)propanoic acid] | B (B: 5-10° C.)
16 | C[C@H]1C[C@](c2cccc(CCC(=O)O)c2)(c2cnc(-c3cc(Oc4c(F)cc5[nH]ccc5c4F)ccc3F)[nH]2)CCO1 (single isomer, unassigned) [Example 152] | B (B: 5-10° C.)
17 | Cc1c(Oc2ccc(F)c(-c3nc(C4(c5cccc(CCC(=O)O)c5)CCOC(C)C4)c[nH]3)c2)c(F)cc2[nH]ccc12 (single isomer, unassigned) [Example 154, 3-(3-(4-(2-(2-fluoro-5-((6-fluoro-4-methyl-1H-indol-5-yl)oxy)phenyl)-1H-imidazol-4-yl)-2-methyltetrahydro-2H-pyran-4-yl)phenyl)propanoic acid] | A (A: T ≥ 10° C.)
18 | Cc1nc(-c2cc(Oc3c(F)cc4[nH]ccc4c3F)ccc2F)[nH]c1C(O)c1cccc(CCC(=O)O)c1F (single isomer, unassigned) [Example 179, 3-(3-((2-(5-((4,6-difluoro-1H-indol-5-yl)oxy)-2-fluorophenyl)-4-methyl-1H-imidazol-5-yl)(hydroxy)methyl)-2-fluorophenyl)propanoic acid] | B (B: 5-10° C.)
19 | Cc1c(Oc2ccc(F)c(-c3ncc(C(C)(O)c4cccc(CCC(=O)O)c4)[nH]3)c2)c(F)cc2[nH]ccc12 (single isomer, unassigned) [Example 215A, 3-(3-(1-(2-(2-Fluoro-5-((6-fluoro-4-methyl-1H-indol-5-yl)oxy)phenyl)-1H-imidazol-5-yl)-1-hydroxyethyl)phenyl)propanoic acid] | B (B: 5-10° C.)
20 | CC(O)(c1cccc(CCC(=O)O)c1)c1cnc(-c2cc(Oc3c(F)cc4[nH]ccc4c3F)ccc2F)[nH]1 (single isomer, unassigned) [Example 216A, 3-(3-(1-(2-(5-((4,6-difluoro-1H-indol-5-yl)oxy)-2-fluorophenyl)-1H-imidazol-5-yl)-1-hydroxyethyl)phenyl) propanoic acid] | B (B: 5-10° C.)
